Results taken from ChEMBL document CHEMBL4477221, “Discovery and Structure-Based Optimization of 2-Ureidothiophene-3-carboxylic Acids as Dual Bacterial RNA Polymerase and Viral Reverse Transcriptase Inhibitors” (J Med Chem, 2016).
In brackets after ≈: the same amount, converted by molar mass. Activity calls are given as the source filed them. No cut-off for these calls is given here.

Test system: Human immunodeficiency virus 1
Assay: Binding affinity to bodipy-labeled HIV1 reverse transcriptase p66 W24C/K287C double mutant assessed as induction of p66 thumb and finger domain open conformation at 3 uM by fluorescence spectroscopic analysis
Conditions: not given
In the case of `CS(=O)(=O)Nc1ccc(NC(=O)Nc2sc(-c3ccc(Cl)c(Cl)c3)cc2C(=O)O)cc1`, the Activity is reported as “inactive”.
With `O=C(Cn1cncn1)Nc1ccc(NC(=O)Nc2sc(-c3ccc(Cl)c(Cl)c3)cc2C(=O)O)cc1` the Activity was “inactive”.
In the case of `O=C(Nc1ccc(F)cc1)Nc1sc(-c2ccc(Cl)c(Cl)c2)cc1C(=O)O`, the Activity is reported as “inactive”.

Test system: Human immunodeficiency virus 1
Assay: Antiviral activity against HIV1 pseudoparticle expressing Gag, Gag-pol, RRE, and vesicular stomatitis virus-G protein assessed as inhibition of pseudoparticles entry into human HeLa cells pretreated for 30 mins followed by pseudoparticle addition measured 24 hrs post infection by luciferase reporter gene assay
Assay type: functional, organism-based
Conditions: not given
For `O=C(Nc1ccc(F)cc1)Nc1sc(-c2ccc(Cl)c(Cl)c2)cc1C(=O)O`, the IC50 was “Not Active”.

Same assay, conditions: Human immunodeficiency virus 1, HeLa; read-out: IC50
With `CS(=O)(=O)Nc1ccc(NC(=O)Nc2sc(-c3ccc(Cl)c(Cl)c3)cc2C(=O)O)cc1` the IC50 was 30 µM.

Test system: not listed separately
Assay: Ratio of IC50 for NNRTI resistant HIV1 harboring reverse transcriptase A98G/K101E/Y181C/G190A mutant infected in human TZM-bl cells to IC50 for wild type HIV1 NL4-3 infected in human TZM-bl cells
Assay type: functional
Conditions: not given
In the case of `CS(=O)(=O)Nc1ccc(NC(=O)Nc2sc(-c3ccc(Cl)c(Cl)c3)cc2C(=O)O)cc1`, the “Ratio IC50” value is reported as 3.5.
With `Cc1cc(/C=C/C#N)cc(C)c1Nc1ccnc(Nc2ccc(C#N)cc2)n1` [RILPIVIRINE] the “Ratio IC50” value was 22.
In the case of `Cc1cc(C#N)cc(C)c1Oc1nc(Nc2ccc(C#N)cc2)nc(N)c1Br` [ETRAVIRINE], the “Ratio IC50” value is reported as 15.

Test system: Human immunodeficiency virus 1
Assay: Binding affinity to bodipy-labeled HIV1 reverse transcriptase p66 W24C/K287C double mutant assessed as induction of p66 thumb and finger domain open conformation by measuring increase in bodipy fluorescence at 10 uM by stopped flow kinetic analysis
Conditions: not given
In the case of `Cc1ccnc2c1NC(=O)c1cccnc1N2C1CC1` [NEVIRAPINE], the Activity is reported as “Active”.

Biological target: Human immunodeficiency virus type 1 reverse transcriptase (Human immunodeficiency virus 1) (UniProt Q72547)
Assay: Inhibition of HIV1 reverse transcriptase using T19-Cy5 labeled 23-mer DNA/T2-TAMRA labeled 63-mer DNA as primer/template assessed as inhibition of dNTP incorporation into primer/template at 10 uM relative to control
Conditions: not given
In the case of `CCN(Cc1ccccc1)C(=O)Nc1c(-c2ccc(Cl)cc2)csc1C(=O)O`, the inhibition is reported as 13%.
In the case of `CCN(Cc1ccccc1)C(=O)Nc1c(-c2ccc(Cl)c(Cl)c2)csc1C(=O)O`, the inhibition is reported as 4%.

Test system: Human immunodeficiency virus 1
Assay: Antiviral activity against wild type HIV1 NL4-3
Assay type: functional, organism-based
Conditions: Human immunodeficiency virus 1, NL4-3
`Cc1cc(/C=C/C#N)cc(C)c1Nc1ccnc(Nc2ccc(C#N)cc2)n1` [RILPIVIRINE] gave an IC50 of 0.0009 µM.
`Cc1cc(C#N)cc(C)c1Oc1nc(Nc2ccc(C#N)cc2)nc(N)c1Br` [ETRAVIRINE] gave an IC50 of 0.005 µM.
For `Cc1ccnc2c1NC(=O)c1cccnc1N2C1CC1` [NEVIRAPINE], the IC50 was 0.1 µM.

Test system: not listed separately
Assay: Cytotoxicity against human HeLa cells infected with HIV1 pseudoparticle expressing Gag, Gag-pol, RRE, and vesicular stomatitis virus-G protein assessed as inhibition of cell viability at 25 uM preincubated with cells for 30 mins followed by pseudoparticle addition measured 24 hrs post infection by MTT assay relative to control
Assay type: cell-based
Conditions: read-out: INH
With `CS(=O)(=O)Nc1ccc(NC(=O)Nc2sc(-c3ccc(Cl)c(Cl)c3)cc2C(=O)O)cc1` the cytotoxicity at 24 h, 25 µM was 0%.
For `O=C(Nc1ccc(F)cc1)Nc1sc(-c2ccc(Cl)c(Cl)c2)cc1C(=O)O`, the cytotoxicity at 24 h, 25 µM was 0%.

Biological target: Human immunodeficiency virus type 1 reverse transcriptase (Human immunodeficiency virus 1) (UniProt Q72547)
Assay: Inhibition of HIV1 reverse transcriptase using T19-Cy5 labeled 23-mer DNA/T2-TAMRA labeled 63-mer DNA as primer/template assessed as inhibition of dNTP incorporation into primer/template at 1 uM relative to control
Conditions: not given
`CCN(Cc1ccccc1)C(=O)Nc1scc(-c2ccc(Cl)cc2)c1C(=O)O` showed an inhibition of 12%.
Molecule `CCN(Cc1ccccc1)C(=O)Nc1scc(-c2ccc(Cl)c(Cl)c2)c1C(=O)O` has an inhibition of 12%.
With `CCN(Cc1ccccc1)C(=O)Nc1sc(-c2ccc(Cl)cc2)cc1C(=O)O` the inhibition was 12%.

Biological target: Human immunodeficiency virus type 1 reverse transcriptase (Human immunodeficiency virus 1) (UniProt Q72547)
Assay: Inhibition of TAMRA-labeled primer/template duplex binding to HIV1 Alexa 488-labeled reverse transcriptase by FRET assay
Conditions: not given
With `CS(=O)(=O)Nc1ccc(NC(=O)Nc2sc(-c3ccc(Cl)c(Cl)c3)cc2C(=O)O)cc1` the Activity was “inactive”.
For `O=C(Cn1cncn1)Nc1ccc(NC(=O)Nc2sc(-c3ccc(Cl)c(Cl)c3)cc2C(=O)O)cc1`, the Activity was “inactive”.
In the case of `O=C(Nc1ccc(F)cc1)Nc1sc(-c2ccc(Cl)c(Cl)c2)cc1C(=O)O`, the Activity is reported as “inactive”.

Test system: not listed separately
Assay: Ratio of IC50 for NNRTI resistant HIV1 harboring reverse transcriptase K103N/V179F/Y181C mutant infected in human TZM-bl cells to IC50 for wild type HIV1 NL4-3 infected in human TZM-bl cells
Assay type: functional
Conditions: not given
In the case of `CS(=O)(=O)Nc1ccc(NC(=O)Nc2sc(-c3ccc(Cl)c(Cl)c3)cc2C(=O)O)cc1`, the “Ratio IC50” value is reported as >4.
In the case of `Cc1cc(/C=C/C#N)cc(C)c1Nc1ccnc(Nc2ccc(C#N)cc2)n1` [RILPIVIRINE], the “Ratio IC50” value is reported as 2.3.
For `Cc1cc(C#N)cc(C)c1Oc1nc(Nc2ccc(C#N)cc2)nc(N)c1Br` [ETRAVIRINE], the “Ratio IC50” value was 8.8.

Test system: not listed separately
Assay: Cytotoxicity against HEK293 cells
Assay type: cell-based
Conditions: human, read-out: LD50 (the source's name)
With `CS(=O)(=O)Nc1ccc(NC(=O)Nc2sc(-c3ccc(Cl)c(Cl)c3)cc2C(=O)O)cc1` the CC50 was > 100 µM.
`O=C(Nc1ccc(F)cc1)Nc1sc(-c2ccc(Cl)c(Cl)c2)cc1C(=O)O` showed a CC50 of 68 µM.

Test system: Staphylococcus aureus
Assay: Antibacterial activity against Staphylococcus aureus
Assay type: functional
Conditions: not given
In the case of `CS(=O)(=O)Nc1ccc(NC(=O)Nc2sc(-c3ccc(Cl)c(Cl)c3)cc2C(=O)O)cc1`, the MIC is reported as 39 µg/mL (≈ 77.9 µM).
With `O=C(Nc1ccc(F)cc1)Nc1sc(-c2ccc(Cl)c(Cl)c2)cc1C(=O)O` the MIC was 4 µg/mL (≈ 9.41 µM).

Test system: not listed separately
Assay: Inhibition of Escherichia coli RNA polymerase
Conditions: not given
For `CCN(Cc1ccccc1)C(=O)Nc1scc(-c2ccc(Cl)cc2)c1C(=O)O`, the IC50 was > 100 µM.
With `CCN(Cc1ccccc1)C(=O)Nc1c(-c2ccc(Cl)cc2)csc1C(=O)O` the IC50 was > 200 µM.
Molecule `CCN(Cc1ccccc1)C(=O)Nc1scc(-c2ccc(Cl)c(Cl)c2)c1C(=O)O` has an IC50 of 57 µM.
For `CS(=O)(=O)Nc1ccc(NC(=O)Nc2sc(-c3ccc(Cl)c(Cl)c3)cc2C(=O)O)cc1`, the IC50 was 26 µM.
`CCN(Cc1ccccc1)C(=O)Nc1sc(-c2ccc(Cl)cc2)cc1C(=O)O` gave an IC50 of 54 µM.
Molecule `O=C(Cn1cncn1)Nc1ccc(NC(=O)Nc2sc(-c3ccc(Cl)c(Cl)c3)cc2C(=O)O)cc1` has an IC50 of 40 µM.
Molecule `O=C(Nc1ccc(F)cc1)Nc1sc(-c2ccc(Cl)c(Cl)c2)cc1C(=O)O` has an IC50 of 14 µM.
Molecule `CCN(Cc1ccccc1)C(=O)Nc1c(-c2ccc(Cl)c(Cl)c2)csc1C(=O)O` has an IC50 of 100 µM.
For `Cc1ccnc2c1NC(=O)c1cccnc1N2C1CC1` [NEVIRAPINE], the IC50 was > 200 µM.

Biological target: Human immunodeficiency virus type 1 reverse transcriptase (Human immunodeficiency virus 1, UniProt Q72547)
Assay: Inhibition of HIV1 reverse transcriptase using T19-Cy5 labeled 23-mer DNA/T2-TAMRA labeled 63-mer DNA as primer/template assessed as inhibition of dNTP incorporation into primer/template
Conditions: not given
With `Cc1cn([C@H]2C[C@H](N=[N+]=[N-])[C@@H](CO[P@](=O)(O)O[P@](=O)(O)OP(=O)(O)O)O2)c(=O)[nH]c1=O` [ZIDOVUDINE TRIPHOSPHATE] the IC50 was 7 µM.
For `CS(=O)(=O)Nc1ccc(NC(=O)Nc2sc(-c3ccc(Cl)c(Cl)c3)cc2C(=O)O)cc1`, the IC50 was 0.1 µM.
Molecule `O=C(Cn1cncn1)Nc1ccc(NC(=O)Nc2sc(-c3ccc(Cl)c(Cl)c3)cc2C(=O)O)cc1` has an IC50 of 0.8 µM.
`O=C(Nc1ccc(F)cc1)Nc1sc(-c2ccc(Cl)c(Cl)c2)cc1C(=O)O` showed an IC50 of 0.7 µM.

Test system: Human immunodeficiency virus 1
Assay: Antiviral activity against wild type HIV1 NL4-3 assessed as inhibition of viral infection in human TZM-bl cells after 48 hrs by luciferase reporter gene assay
Assay type: functional, organism-based
Conditions: Human immunodeficiency virus 1, NL4-3, TZM-bl
Work on `CS(=O)(=O)Nc1ccc(NC(=O)Nc2sc(-c3ccc(Cl)c(Cl)c3)cc2C(=O)O)cc1` yielded an IC50 of 5 µM.

Biological target: Human immunodeficiency virus type 1 reverse transcriptase (Human immunodeficiency virus 1) (UniProt Q72547)
Assay: Effect on binding orientation of HIV1 Alexa 488-labeled reverse transcriptase to TAMRA-labeled primer/template duplex by FRET assay
Conditions: not given
In the case of `CS(=O)(=O)Nc1ccc(NC(=O)Nc2sc(-c3ccc(Cl)c(Cl)c3)cc2C(=O)O)cc1`, the Activity is reported as “inactive”.
For `O=C(Cn1cncn1)Nc1ccc(NC(=O)Nc2sc(-c3ccc(Cl)c(Cl)c3)cc2C(=O)O)cc1`, the Activity was “inactive”.
In the case of `O=C(Nc1ccc(F)cc1)Nc1sc(-c2ccc(Cl)c(Cl)c2)cc1C(=O)O`, the Activity is reported as “inactive”.

Test system: Human immunodeficiency virus 1
Assay: Antiviral activity against NNRTI resistant HIV1 harboring reverse transcriptase V106I/Y181C/G190A/H221Y mutant assessed as inhibition of viral infection in human TZM-bl cells after 48 hrs by luciferase reporter gene assay
Assay type: functional, organism-based
Conditions: Human immunodeficiency virus 1, TZM-bl
`CS(=O)(=O)Nc1ccc(NC(=O)Nc2sc(-c3ccc(Cl)c(Cl)c3)cc2C(=O)O)cc1` showed an IC50 of 1.5 µM.
Molecule `Cc1cc(/C=C/C#N)cc(C)c1Nc1ccnc(Nc2ccc(C#N)cc2)n1` [RILPIVIRINE] has an IC50 of 3.5 µM.
`Cc1cc(C#N)cc(C)c1Oc1nc(Nc2ccc(C#N)cc2)nc(N)c1Br` [ETRAVIRINE] gave an IC50 of 6 µM.
In the case of `O=C1Nc2ccc(Cl)cc2[C@@](C#CC2CC2)(C(F)(F)F)O1` [EFAVIRENZ], the IC50 is reported as 26 µM.
For `Cc1ccnc2c1NC(=O)c1cccnc1N2C1CC1` [NEVIRAPINE], the IC50 was > 200 µM.

Test system: not listed separately
Assay: Ratio of IC50 for NNRTI resistant HIV1 harboring reverse transcriptase L100I/K103N/H221Y mutant infected in human TZM-bl cells to IC50 for wild type HIV1 NL4-3 infected in human TZM-bl cells
Assay type: functional
Conditions: not given
With `CS(=O)(=O)Nc1ccc(NC(=O)Nc2sc(-c3ccc(Cl)c(Cl)c3)cc2C(=O)O)cc1` the “Ratio IC50” value was >4.
With `Cc1cc(/C=C/C#N)cc(C)c1Nc1ccnc(Nc2ccc(C#N)cc2)n1` [RILPIVIRINE] the “Ratio IC50” value was 6.3.
With `Cc1cc(C#N)cc(C)c1Oc1nc(Nc2ccc(C#N)cc2)nc(N)c1Br` [ETRAVIRINE] the “Ratio IC50” value was 6.8.
